The record followed here is ChEMBL document CHEMBL1201862, “PubChem BioAssay data set” (2004).

Structures are written as SMILES.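 These data come from cells grown in 96-well plates and exposed to compound for 48 hours at five concentrations. GI50: concentration for 50% inhibition of growth.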 Active and inactive are the calls of the source. Rule as the data show it: active = GI50 up to about 1.1 µM and inactive = higher.

Some test systems named below: UO-31; Malme-3M; TK-10; EKVX; NCI-H226; CCRF-CEM; KM12; OVCAR-3; SNB-19; HOP-62; HL-60; A549; SN12C; SF-268; RXF 393; NCI-H522; SR; HCT-116.
Holding throughout (assay): NCI tumour cell line growth inhibition, 48 h

For the compound `CC1=C(C(=O)Nc2cc(=O)n(C)c(=O)n2C)C(c2ccco2)C(C(=O)Nc2cc(=O)n(C)c(=O)n2C)=C(C)N1`, the GI50 with UO-31, in the test on Malme-3M, in the test on TK-10, in the test with EKVX, with NCI-H226 and in the test on CCRF-CEM was > 100 µM (inactive) throughout. Also, the GI50 in the test on KM12 was > 100 µM (inactive); in the test with OVCAR-3 it was > 100 µM (inactive); with SNB-19, > 100 µM (inactive); in the test on HOP-62, 41.5 µM (inactive); with HL-60, > 100 µM (inactive); in the test on A549, > 100 µM (inactive). Besides, the GI50 in the test with SN12C, with SF-268, in the test with RXF 393 and with NCI-H522 was > 100 µM (inactive) throughout.
With `COC(=O)CSc1nnc(-c2ccc(O)c([N+](=O)[O-])c2)[nH]1`, the GI50 in the test with SR, in the test on UO-31, in the test with Malme-3M, with TK-10, with EKVX and in the test on NCI-H226 was > 100 µM (inactive) each time. The GI50 in the test with CCRF-CEM, in the test with OVCAR-3, with HCT-116, with SNB-19, with HL-60 and in the test with A549 was > 100 µM (inactive) throughout. For the same compound, the GI50 with SN12C, in the test on SF-268 and in the test on RXF 393 was > 100 µM (inactive) in each case.
Regarding `Cc1cc(N(C)c2ccccc2)nc(N(C)c2ccccc2)n1`, the GI50 is 27.7 µM (inactive) in the test on SR; 80.2 µM (inactive) with UO-31; 26.9 µM (inactive) in the test on Malme-3M; 55.7 µM (inactive) in the test with TK-10; 36.1 µM (inactive) in the test on EKVX; 34.6 µM (inactive) in the test on NCI-H226. In addition, the GI50 with CCRF-CEM was 23.6 µM (inactive); in the test on KM12 it was 18.1 µM (inactive); in the test on OVCAR-3, 33 µM (inactive); in the test on HCT-116 it was 19.6 µM (inactive); in the test with SNB-19 it was 88.1 µM (inactive); in the test with HOP-62 it was 31.2 µM (inactive). In addition, the GI50 in the test with HL-60 was 37.8 µM (inactive); in the test on A549 it was 27.5 µM (inactive); in the test with SN12C, 46.8 µM (inactive); with SF-268, 54 µM (inactive); in the test on RXF 393 it was 22 µM (inactive); in the test with NCI-H522, 36.9 µM (inactive).
On to `CN(C)C(=S)/N=c1\ss/c(=N\C(=S)N(C)C)n1-c1ccc(Cl)c(Cl)c1`, for which the GI50 with SR, in the test with UO-31, in the test on Malme-3M, with TK-10, in the test on EKVX and with NCI-H226 was > 100 µM (inactive) each time. Moreover, the GI50 with CCRF-CEM is > 100 µM (inactive); in the test on KM12, > 100 µM (inactive); in the test with OVCAR-3, > 100 µM (inactive); in the test with HCT-116, > 100 µM (inactive); in the test with SNB-19, > 100 µM (inactive); with HOP-62, 40.6 µM (inactive). In addition, the GI50 with HL-60 was > 100 µM (inactive); with A549, > 100 µM (inactive); with SN12C, > 100 µM (inactive); in the test with SF-268, > 100 µM (inactive); in the test on RXF 393, 89.9 µM (inactive); with NCI-H522, > 100 µM (inactive).
For `NCCCCN(CCCN)/[N+]([O-])=N\O`, the GI50 with SR, with UO-31, with Malme-3M, in the test on NCI-H226, with CCRF-CEM and in the test with KM12 was > 100 µM (inactive) each time. For the same compound, the GI50 in the test with OVCAR-3, in the test on HCT-116, in the test with SNB-19, in the test on HOP-62, with HL-60 and with A549 was > 100 µM (inactive) throughout. The GI50 with SN12C, in the test on SF-268, with RXF 393 and in the test on NCI-H522 was > 100 µM (inactive) each time.
Consider `Nc1ccn([C@@H]2C[C@H](CO)[C@@H](O)[C@H]2O)c(=O)n1`, for which the GI50 with SR, in the test on UO-31, in the test with Malme-3M, with TK-10, with EKVX and in the test with NCI-H226 was > 57.7 µM (inactive) each time. Also, the GI50 in the test with KM12, in the test on OVCAR-3, with HCT-116, in the test on SNB-19, in the test on HOP-62 and in the test with HL-60 was > 57.7 µM (inactive) throughout. Also, the GI50 with A549, with SN12C, in the test with SF-268, with RXF 393 and in the test with NCI-H522 was > 57.7 µM (inactive) in each case.
On to `NC(=O)NC1C(C(=O)O)N(Cc2ccccc2)C(=O)N1Cc1ccccc1` (stereo not drawn), for which the GI50 with SR, in the test on UO-31, with Malme-3M, in the test with TK-10, with EKVX and with NCI-H226 was > 100 µM (inactive) throughout. Further, the GI50 in the test with CCRF-CEM, in the test on KM12, in the test with OVCAR-3, in the test with HCT-116, with SNB-19 and with HOP-62 was > 100 µM (inactive) in each case. Also, the GI50 in the test with HL-60, in the test on A549, in the test with SF-268 and in the test with NCI-H522 was > 100 µM (inactive) in each case.
As to `CC(=O)NC(Cc1ccccc1)C(=S)N1CCCC1` (stereo not drawn), the GI50 in the test on UO-31, in the test with Malme-3M, in the test on TK-10, in the test with EKVX, in the test with NCI-H226 and in the test on CCRF-CEM was > 100 µM (inactive) throughout. Moreover, the GI50 in the test on KM12, in the test with OVCAR-3, in the test with HCT-116, in the test with SNB-19, in the test on HOP-62 and with HL-60 was > 100 µM (inactive) throughout. For the same compound, the GI50 in the test on A549, in the test on SN12C, with SF-268, in the test on RXF 393 and with NCI-H522 was > 100 µM (inactive) each time.
In the case of `Cc1c2ccncc2c(C)c2c1[nH]c1ccc(Cl)cc12`, the GI50 in the test on UO-31 is 3.56 µM (inactive); with Malme-3M it was 5.68 µM (inactive); with TK-10, 6.07 µM (inactive); in the test on EKVX, 4.84 µM (inactive); in the test with NCI-H226, 3.17 µM (inactive); with CCRF-CEM, 1.36 µM (inactive). Further, the GI50 in the test on KM12 was 1.86 µM (inactive); in the test on OVCAR-3, 2.2 µM (inactive); in the test on HCT-116 it was 1.07 µM (active); in the test on SNB-19, 2.35 µM (inactive); with HOP-62, 3.85 µM (inactive); in the test with HL-60, 2.11 µM (inactive). For the same compound, the GI50 was 3.41 µM (inactive) in the test on SN12C, 4.58 µM (inactive) in the test on RXF 393 and 2.36 µM (inactive) in the test with NCI-H522.
Consider `COC(=O)C(=O)C(C#N)c1cccc2ccccc12` (stereo not drawn), for which the GI50 in the test with SR, in the test with UO-31, with Malme-3M, in the test with EKVX, in the test on NCI-H226 and in the test on CCRF-CEM was > 100 µM (inactive) in each case. Moreover, the GI50 in the test on KM12 is 22.9 µM (inactive); with OVCAR-3 it was > 100 µM (inactive); with HCT-116 it was > 100 µM (inactive); in the test on SNB-19 it was > 100 µM (inactive); with HOP-62, > 100 µM (inactive); with HL-60 it was > 100 µM (inactive). For the same compound, the GI50 in the test with A549, in the test on SN12C, with SF-268 and in the test with NCI-H522 was > 100 µM (inactive) each time.
`O=C1CC2CCN(C(=O)c3ccccc3)CC2CCN1` (stereo not drawn): the GI50 in the test on SR, in the test with UO-31, in the test with Malme-3M, in the test with TK-10, in the test on EKVX and with NCI-H226 was > 100 µM (inactive) in each case. For the same compound, the GI50 with CCRF-CEM, with KM12, with OVCAR-3, with HCT-116, in the test with SNB-19 and in the test on HOP-62 was > 100 µM (inactive) each time. Also, the GI50 with HL-60, with A549, with SN12C, in the test on SF-268 and in the test on RXF 393 was > 100 µM (inactive) each time.
`CC1CCSC(N(C(=O)N(C)c2ccccc2)c2ccccc2)=N1` (stereo not drawn): the GI50 in the test with UO-31 was > 100 µM (inactive); in the test on Malme-3M, > 100 µM (inactive); in the test with TK-10, > 100 µM (inactive); in the test with EKVX it was > 100 µM (inactive); in the test on NCI-H226, 74.1 µM (inactive); in the test with CCRF-CEM it was > 100 µM (inactive). Besides, the GI50 in the test on KM12, in the test on OVCAR-3, with HCT-116, in the test on SNB-19, in the test with HOP-62 and in the test with HL-60 was > 100 µM (inactive) each time. Moreover, the GI50 in the test on A549, in the test with SN12C, with SF-268, in the test on RXF 393 and with NCI-H522 was > 100 µM (inactive) in each case.
